In patent US9610258B2, “Methods of stabilizing the extracellular matrix and compositions therefor” (priority 2011, dated 2017):
“And” between values parts separate entries of the source, which are not always exact repeats. Identical values can stand only once.

Experiments:
ear edema = conditions: cited from earlier work
[1] = 12-month aging of topical cream, isothiocyanate concentration by HPLC; type: physicochemical; conditions: Table 11 cream; for isothiocyanate concentration in cream, 4 months: aged 4 months; for isothiocyanate concentration in cream, 8 months: aged 8 months; for isothiocyanate concentration in cream, 12 months: aged 12 months; for isothiocyanate concentration in cream, Original: time 0
Protocol: To determine the effects of aging of the topical cream formulations on the potency of the included bioactives, a study was performed as described in Table 12. Shown is a 12-month aging of the orthomolecular transdermal formulation as described in Table 11. Bio-encapsulation of the isothiocyanates, such as cyclodextrin R-sulforaphane, is not commonly available, and can suffer instability depending on the cream base used. Since topical formulations are applied to the skin, consideration of noxious volatile sulfur emissions and dermal irritation, especially from broccoli, wasabi, and mustard extracts, limit their amount and source. Table 12 illustrates that stabilization of orthomolecular ingredients such as isothiocyanates can be accomplished in a topical formulation.

mice = conditions: mouse, in vivo; cited from earlier work
[2] = in topical formulations; cited from earlier work
[3] = test system: oxazolone-induced ear edema in BALB/c mice; assay: Oxazolone-induced murine ear edema, second formalized study; type: in vivo; conditions: for reduction / inhibition of oxazolone-induced ear edema: as stated in running text per treatment group; for Change in Ear Weight, Mean: group mean, 8 mice, acetone vehicle 74.6; for Left Ear weight / Right Ear weight / ΔWt., change in mouse ear weight: individual mice, 24 h after oxazolone challenge; for % Inhibition of change in ear weight: vs acetone vehicle group
Protocol: The present example assesses the anti-inflammatory activity of a topically applied formulation in accordance with one aspect of the present invention in a prophylactic and therapeutic model of ear edema in BALB/c mice. […] Louis, Mo., USA) to 20 mL acetone (Acros Organics, Cat. 42324-0010, lot B4522107, Thermo Fisher Scientific, Princeton, N.J., USA). The mixture was gently heated until a bright yellow color. 52 BALB/c mice (Harlan Sprague-Dawley, Inc., Indianapolis, Ind., USA, male, 6-7 weeks old) were received, individually examined and housed in six cages of eight mice each and one cage containing four mice. No clinical signs of disease or distress were observed. The mice were placed in quarantine with daily inspections. […] The mixture was gently heated until a bright yellow color. […] This equated to 0.336 mg of cream per ear. 0.6 mg betamethasone-21-valerate (Sigma Chem., Cat. […] PZ0008, lot 020M47044) was suspended in […] dH2O (1 mg/mL) for Group 4. […] Twenty-four hours after oxazolone challenge, the mice were euthanized, and the ears were removed and weighed.

breast cancer = conditions: women living at least one year after breast cancer diagnosis; cited from earlier work

## Oc1ccc(/C=C/c2cc(O)cc(O)c2)cc1 [trans-resveratrol, 3,5,4′-trihydroxy-trans-stilbene]
Ear edema; commercially-purified, at similar concentration to that of the topical formulation
  inhibition of edema: 35%

## C[S@+]([O-])CCCCN=C=S [L-Sulforaphane]
[1]
  isothiocyanate concentration in cream, 4 months: 0.358 Mg/gm
  isothiocyanate concentration in cream, 8 months: 1.105 Mg/gm
  isothiocyanate concentration in cream, 12 months: 1.841 Mg/gm
  isothiocyanate concentration in cream, Original: 0.606 Mg/gm

## COc1cc(/C=C/C(=O)CC(=O)/C=C/c2ccc(O)c(OC)c2)ccc1O [Curcumin]
mice
  Oral LD50: > 2 g/kg body weight

## C[S+]([O-])CCCCN=C=S (centres unmarked) [Sulforaphane]
[2]
  time to decline to a zero level: 30 days

## betamethasone-21-valerate [Topical Betamethasone]
[3]
  reduction / inhibition of oxazolone-induced ear edema: 69%
  Change in Ear Weight, Mean: 23.7 mg
  Left Ear weight: 22.10 mg and 23.20 mg and 24.56 mg and 20.44 mg and 21.26 mg and 22.60 mg (2×) and 25.74 mg
  Right Ear weight: 48.00 mg and 45.52 mg and 48.66 mg and 47.03 mg and 41.34 mg and 45.70 mg and 49.51 mg and 46.30 mg
  ΔWt., change in mouse ear weight: 25.90 mg and 22.32 mg and 24.10 mg and 26.59 mg and 20.08 mg and 23.10 mg and 26.91 mg and 20.56 mg
  % Inhibition of change in ear weight: 68%

## COc1ccc2c(c1)c(CC(=O)O)c(C)n2C(=O)c1ccc(Cl)cc1 [indomethacin]
Ear edema; research grade trans-resveratrol, indomethacin 0.5 mg/ear
  inhibition / reduction of edema reported by studies of individual topical components: 45%

## Cc1ccc(-c2cc(C(F)(F)F)nn2-c2ccc(S(N)(=O)=O)cc2)cc1 [Oral Celecoxib, celecoxib]
[3]
  reduction / inhibition of oxazolone-induced ear edema: 37%
  Change in Ear Weight, Mean: 46.7 mg
  Left Ear weight: 27.52 mg and 25.00 mg and 22.00 mg and 27.84 mg and 30.30 mg and 26.29 mg and 23.89 mg and 23.84 mg
  Right Ear weight: 79.55 mg and 68.55 mg (2×) and 72.46 mg and 81.00 mg and 75.32 mg and 72.39 mg and 62.48 mg
  ΔWt., change in mouse ear weight: 52.03 mg and 43.55 mg and 46.55 mg and 44.62 mg and 50.70 mg and 49.03 mg and 48.50 mg and 38.64 mg
  % Inhibition of change in ear weight: 37%

## C[S@@+]([O-])C=CCCN=C=S [Sulforaphene, 4-isothiocyanato-(1R)-(methylsulphinyl)-1-(E)-butene]
[1]
  isothiocyanate concentration in cream, 4 months: 1.729 Mg/gm
  isothiocyanate concentration in cream, 8 months: 0.308 Mg/gm
  isothiocyanate concentration in cream, 12 months: 0.233 Mg/gm
  isothiocyanate concentration in cream, Original: 0.551 Mg/gm

## C[S+]([O-])CCCCCCN=C=S (centres unmarked) [6 MITC, 6-(methylsulfinyl)hexyl isothiocyanate]
[1]
  isothiocyanate concentration in cream, 4 months: 0.341 Mg/gm
  isothiocyanate concentration in cream, 8 months: 0.614 Mg/gm
  isothiocyanate concentration in cream, 12 months: 0.571 Mg/gm
  isothiocyanate concentration in cream, Original: 0.123 Mg/gm

## CC(=O)Oc1ccccc1C(=O)O [aspirin]
Breast cancer
  decrease in distant recurrence and breast cancer death: ~50%
